Here are results for 18 molecules from patent publication US20150005288A1, “SUBSTITUTED PHENYLIMIDAZOPYRAZOLES AND USE THEREOF” (Bayer Intellectual Property GmbH, priority 2012, published 2015).

Test [1] deals with T1, intracellular domain of human Tie2 (GST fusion protein) (Homo sapiens, UniProt Q02763).
T1 construct: intracellular domain of human Tie2 (amino acids 776-1124); made in house; host or cells: Baculovirus-infected insect cells (Hi5)
In words: Tie2 kinase assay (Tie2-TR-FRET). The class given is biochemical. Particulars: ATP concentration 1 mM, in some cases means of several independent determinations. The procedure, abridged:
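High ATP (1 mM final) with 1 μM biotin-peptide substrate; reaction 60 min at 22 °C after 15 min compound pre-binding to GST-Tie2 (aa 776-1124) in HEPES pH 7 with Mg/Mn. Phosphopeptide detected by TR-FRET emission ratio 665/620 nm. IC50 from 4-parameter fit over 20 μM to 0.073 nM, duplicates.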

The target in test [2] is T2, endogenous Tie2 receptor (Homo sapiens, UniProt Q02763).
T2 construct: the endogenous Tie2 receptor; host or cells: HUVEC (human umbilical vein endothelial cells)
In words: Tie2-pTyr-ELISA: autophosphorylation of endogenous Tie2 receptor in HUVEC. As to conditions: autophosphorylation elevated by sodium orthovanadate (4 mM), Tie2/phosphotyrosine sandwich ELISA, from 2-7 independent measurements. The class given is cell-based. On the procedure: The cellular activity of the compounds according to the invention as Tie2 kinase inhibitors was determined in human endothelial cells (HUVEC) by measuring the inhibition of the autophosphorylation, elevated by treatment with sodium orthovanadate, of the endogenous Tie2 receptor by means of a Tie2/phosphotyrosine sandwich ELISA.
Human endothelial cells (human umbilical vein endothelial cells, HUVEC) were obtained from Cellsystems (FC-0003), cultured in Vasculife VEGF complete medium (Cellsystems, LL-1020) with 2% foetal calf serum (FCS) at 37° C./5% CO2 and used for Tie2-ELISA measurements up to passage 8.
HUVEC were plated in a culture volume of 100 μl of Vasculife VEGF complete medium at a cell density of 30 000 cells per well in transparent collagen-coated 96-well cell culture plates (Falcon, #353075) and incubated in an incubation cabinet at 37° C./5% CO2 overnight. The test substances dissolved in DMSO were used to prepare in each case one dilution series in Vasculife VEGF low-serum medium [basal medium with LifeFactors (Cellsystems, LM-0002), without FCS, with 0.1% BSA] without sodium orthovanadate and one dilution series in Vasculife VEGF low-serum-medium with 8 mM sodium orthovanadate in the desired concentrations in the range from 10 pM to 10 μM, the final DMSO concentration being 1%. After removal of the complete medium, 100 μl per well of the dilute substances in low-serum medium without sodium orthovanadate were pipetted onto the cells, and the plates were incubated in an incubation cabinet at 37° C./5% CO2 for 10 min. A further 100 μl of the same substance dilution in low-serum medium with 8 mM sodium orthovanadate were then pipetted into the respective well and the cells were incubated in a volume of now 200 μl in the presence of 4 mM sodium orthovanadate at the desired substance concentration in an incubation cabinet at 37° C./5% CO2 for a further 20 min. The cell supernatant of the plates was then removed and the cells were washed once with 250 μl per well of cold PBS which contained 4 mM sodium orthovanadate. 120 μl of Duschl lysis buffer [50 mM HEPES pH 7.2, 150 mM NaCl, 1 mM MgCl2, 10% glycerol, 1.5% Triton X-100, 4 mM sodium orthovanadate, 250 μl S-PIC phosphatase inhibitor cocktail 2 (Sigma, P5726) and 1 tablet of Complete proteinase inhibitor mixture (Roche, #1836145) per 10 ml] were then added to the cells in each well. The plates were shaken briefly and then incubated on ice for 20 min, and the lysates in the cell culture plates were then frozen at −80° C. for at least 30 min.
For measuring the autophosphorylation of the endogenous Tie2 receptor in the cell lysates prepared, a self-prepared anti-Tie2 antibody directed against the N-terminus of the Tie-2 receptor (1.09 mg/ml) and an HRP-coupled anti-phosphotyrosine antibody (Sigma, A4595, clone pY-20) were used. White 96-well ELISA plates (Lumitrac600, Greiner, #655074) were incubated with 100 μl per well of a 1:1000 dilution of the anti-Tie2 antibody in coating buffer [15 mM Na2CO3, 35 mM NaHCO3, pH 9.6] with shaking at 4° C. overnight. The coated ELISA plates were washed three times with 250 μl PBST buffer [0.1% Tween-20 in PBS], the wells were blocked with 250 μl 3% BSA in PBST buffer with shaking at RT for 1-6 h and washed three more times with 250 μl PBST buffer. From the cell lysate plates thawed in the fridge, in each case 100 μl of lysate were transferred into the coated wells of the ELISA plates, and the plates were incubated with shaking at 4° C. overnight. The plates were washed three times with in each case 250 μl of PBST buffer, and 100 μl of a 1:5000 dilution of the anti-phosphotyrosine HRP antibody in 3% Prionex (Calbiochem, #529600) in PBST were then pipetted into each well and the plates were incubated with shaking and protected from light at 4° C. overnight. […]

T2 sequence (Q02763 23-1124): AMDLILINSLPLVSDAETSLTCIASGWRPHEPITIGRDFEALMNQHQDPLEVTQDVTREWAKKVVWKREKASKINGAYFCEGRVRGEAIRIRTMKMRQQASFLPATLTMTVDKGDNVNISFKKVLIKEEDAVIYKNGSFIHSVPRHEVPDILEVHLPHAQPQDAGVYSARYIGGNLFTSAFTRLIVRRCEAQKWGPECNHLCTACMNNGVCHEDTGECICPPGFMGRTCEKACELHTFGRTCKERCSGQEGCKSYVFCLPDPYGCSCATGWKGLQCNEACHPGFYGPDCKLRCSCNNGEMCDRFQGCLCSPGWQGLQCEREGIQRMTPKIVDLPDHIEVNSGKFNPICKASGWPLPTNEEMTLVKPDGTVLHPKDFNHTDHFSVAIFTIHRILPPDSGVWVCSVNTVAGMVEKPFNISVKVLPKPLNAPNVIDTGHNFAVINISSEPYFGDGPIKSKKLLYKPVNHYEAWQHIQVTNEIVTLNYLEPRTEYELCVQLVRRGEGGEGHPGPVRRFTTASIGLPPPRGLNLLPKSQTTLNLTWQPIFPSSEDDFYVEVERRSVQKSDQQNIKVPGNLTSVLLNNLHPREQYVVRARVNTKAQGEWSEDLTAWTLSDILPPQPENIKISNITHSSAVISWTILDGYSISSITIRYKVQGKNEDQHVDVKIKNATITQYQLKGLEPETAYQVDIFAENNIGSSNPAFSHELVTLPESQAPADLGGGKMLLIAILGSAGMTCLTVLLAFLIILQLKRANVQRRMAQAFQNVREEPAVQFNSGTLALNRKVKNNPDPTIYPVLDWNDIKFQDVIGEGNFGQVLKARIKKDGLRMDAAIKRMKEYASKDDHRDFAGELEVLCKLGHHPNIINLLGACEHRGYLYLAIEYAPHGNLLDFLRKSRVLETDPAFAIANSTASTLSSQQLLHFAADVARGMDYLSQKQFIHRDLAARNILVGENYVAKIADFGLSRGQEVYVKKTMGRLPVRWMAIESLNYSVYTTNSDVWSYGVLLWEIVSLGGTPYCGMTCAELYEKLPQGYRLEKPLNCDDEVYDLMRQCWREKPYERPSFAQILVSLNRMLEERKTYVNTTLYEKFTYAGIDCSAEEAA
T1 sequence (Q02763 776-1124): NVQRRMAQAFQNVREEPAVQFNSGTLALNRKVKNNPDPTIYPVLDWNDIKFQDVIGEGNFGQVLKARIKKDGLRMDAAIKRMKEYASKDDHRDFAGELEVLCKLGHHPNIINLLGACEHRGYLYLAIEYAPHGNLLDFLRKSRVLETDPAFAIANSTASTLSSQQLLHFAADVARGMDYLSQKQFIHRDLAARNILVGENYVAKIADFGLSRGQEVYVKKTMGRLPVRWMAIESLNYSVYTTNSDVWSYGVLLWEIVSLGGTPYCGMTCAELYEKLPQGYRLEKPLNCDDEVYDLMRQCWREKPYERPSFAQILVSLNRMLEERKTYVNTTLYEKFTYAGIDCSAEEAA

In the case of `Cc1cc(Cl)c(-n2ccn3nc(-c4cccnc4)cc23)cc1NC(=O)c1cccc(S(F)(F)(F)(F)F)c1` [Example 157, N-{4-Chloro-2-methyl-5-[6-(pyridin-3-yl)-1H-imidazo[1,2-b]pyrazol-1-yl]phenyl}-3-(pentafluoro-λ^6-sulphanyl)benzamide], the figures for the IC50 in test [1] and in test [2] were 0.5 nM and 1 nM, respectively.
Take `Cc1ccc(NC(=O)c2cc(C(C)(C)O)cc(S(F)(F)(F)(F)F)c2)cc1-n1ccn2nc(-c3cccnc3)cc12` [Example 32, 3-(2-Hydroxypropan-2-yl)-N-{4-methyl-3 [6-(pyridin-3-yl)-1H-imidazo[1,2-b]pyrazol-1-yl]-phenyl}-5-(pentafluoro-λ^6-sulphanyl)benzamide]: the IC50 in test [1] was 0.4 nM; in test [2], 2.1 nM.
On the same counts, the results for `Cc1ccc(NC(=O)c2cc(S(C)(=O)=O)cc(S(F)(F)(F)(F)F)c2)cc1-n1ccn2nc(-c3cccnc3)cc12` [Example 26, N-{4-Methyl-3-[6-(pyridin-3-yl)-1H-imidazo[1,2-b]pyrazol-1-yl]phenyl}-3-(methylsulphonyl)-5-(pentafluoro-λ^6-sulphanyl)benzamide] are 0.8 nM and 3 nM.
On the same counts, the results for `Cc1ccc(NC(=O)c2cc(C(C)(C)O)cc(S(F)(F)(F)(F)F)c2)cc1-n1ccn2nc(-c3cn[nH]c3)cc12` [Example 4, 3-(2-Hydroxypropan-2-yl)-N-{4-methyl-3-[6-(1H-pyrazol-4-yl)-1H-imidazo[1,2-b]pyrazol-1-yl]-phenyl}-5-(pentafluoro-λ^6-sulphanyl)benzamide] are 0.6 nM and 4.7 nM.
In the case of `CNc1cc(C(=O)Nc2ccc(C)c(-n3ccn4nc(-c5cccnc5)cc34)c2)cc(C(C)(C)C)n1` [Example 66, 2-tert-Butyl-6-(methylamino)-N-{4-methyl-3-[6-(pyridin-3-yl)-1H-imidazo[1,2-b]pyrazol-1-yl]-phenyl}isonicotinamide], the IC50 in test [1] came to 7.9 nM; in test [2], 46 nM.
Regarding `Cc1ccc(NC(=O)c2cc(F)cc(S(F)(F)(F)(F)F)c2)cc1-n1ccn2nc(-c3cccnc3)cc12` [Example 88, 3-Fluoro-N-{4-methyl-3-[6-(pyridin-3-yl)-1H-imidazo[1,2-b]pyrazol-1-yl]phenyl}-5-(pentafluoro-λ^6-sulphanyl)benzamide], the results for the IC50 in test [1] and in test [2] were 23 nM and 41 nM, respectively.
The matching figures for `Cc1ccc(NC(=O)c2cc(C#N)cc(S(F)(F)(F)(F)F)c2)cc1-n1ccn2nc(-c3cccnc3)cc12` [Example 28, 3-Cyano-N-{4-methyl-3-[6-(pyridin-3-yl)-1H-imidazo[1,2-b]pyrazol-1-yl]phenyl}-5-(pentafluoro-λ^6-sulphanyl)benzamide]: 2.1 nM and 3.6 nM.
For the molecule `Cc1cc(C)c(-n2ccn3nc(-c4cccnc4)cc23)cc1NC(=O)c1cc(C#N)cc(S(F)(F)(F)(F)F)c1` [Example 74, 3-Cyano-N-{2,4-dimethyl-5-[6-(pyridin-3-yl)-1H-imidazo[1,2-b]pyrazol-1-yl]phenyl}-5-(pentafluoro-λ^6-sulphanyl)benzamide], the IC50 in test [1] was 0.5 nM; in test [2] it was 0.6 nM.
As for `Cc1ccc(NC(=O)c2cc(-n3ccnc3C)cc(S(F)(F)(F)(F)F)c2)cc1-n1ccn2nc(-c3cccnc3)cc12` [Example 16, 3-(2-Methyl-1H-imidazol-1-yl)-N-{4-methyl-3-[6-(pyridin-3-yl)-1H-imidazo[1,2-b]pyrazol-1-yl]-phenyl}-5-(pentafluoro-λ^6-sulphanyl)benzamide], the IC50 in test [1] was found to be 0.7 nM; in test [2] it was 3.2 nM.
On the same counts, the results for `Cc1ccc(NC(=O)c2cc(N3CCN(C)CC3)cc(C(C)(C)C)c2)cc1-n1ccn2nc(-c3cccnc3)cc12` [Example 48, 3-tert-Butyl-5-(4-methylpiperazin-1-yl)-N-{4-methyl-3-[6-(pyridin-3-yl)-1H-imidazo[1,2-b]-pyrazol-1-yl]phenyl}benzamide] are 0.3 nM and 6.4 nM.
On the same counts, the results for `Cc1cc(C)c(-n2ccn3nc(-c4cccnc4)cc23)cc1NC(=O)c1cccc(S(F)(F)(F)(F)F)c1` [Example 73, N-{2,4-Dimethyl-5-[6-(pyridin-3-yl)-1H-imidazo[1,2-b]pyrazol-1-yl]phenyl}-3-(pentafluoro-λ^6-sulphanyl)benzamide] are 0.3 nM and 0.8 nM.
Regarding `Cc1ccc(NC(=O)c2cc(N3CCOCC3)cc(S(F)(F)(F)(F)F)c2)cc1-n1ccn2nc(-c3cn[nH]c3)cc12` [Example 3, N-{4-Methyl-3-[6-(1H-pyrazol-4-yl)-1H-imidazo[1,2-b]pyrazol-1-yl]phenyl}-3-(morpholin-4-yl)-5-(pentafluoro-λ^6-sulphanyl)benzamide], the IC50 was determined as 1.2 nM in test [1] and 3.4 nM in test [2].
The matching figures for `Cc1ccc(NC(=O)c2cc(N3CCN(C)CC3)cc(S(F)(F)(F)(F)F)c2)cc1-n1ccn2nc(-c3cccnc3)cc12` [Example 18, 3-(4-Methylpiperazin-1-yl)-N-{4-methyl-3-[6-(pyridin-3-yl)-1H-imidazo[1,2-b]pyrazol-1-yl]-phenyl}-5-(pentafluoro-λ^6-sulphanyl)benzamide]: 0.7 nM and 11 nM.
In turn, `COc1ccc(NC(=O)c2cc(C#N)cc(S(F)(F)(F)(F)F)c2)cc1-n1ccn2nc(-c3cccnc3)cc12` [Example 99, 3-Cyano-N-{4-methoxy-3-[6-(pyridin-3-yl)-1H-imidazo[1,2-b]pyrazol-1-yl]phenyl}-5-(pentafluoro-λ^6-sulphanyl)benzamide] showed an IC50 in test [1] of 240 nM.
For `Cc1cc(C)c(-n2ccn3nc(-c4cccnc4)cc23)cc1NC(=O)c1cc(Br)cc(S(F)(F)(F)(F)F)c1` [Example 109, 3-Bromo-N-{2,4-dimethyl-5-[6-(pyridin-3-yl)-1H-imidazo[1,2-b]pyrazol-1-yl]phenyl}-5-(pentafluoro-λ^6-sulphanyl)benzamide], half-maximal inhibition in test [1] (IC50) was put at 0.5 nM.
Regarding `Cc1cc(C)cc(C(=O)Nc2ccc(C)c(-n3ccn4nc(-c5cccnc5)cc34)c2)c1` [Example 52, 3,5-Dimethyl-N-{4-methyl-3-[6-(pyridin-3-yl)-1H-imidazo[1,2-b]pyrazol-1-yl]phenyl}benzamide], the IC50 in test [1] turned out to be 230 nM.
On to `Cc1ccc(NC(=O)c2cc(N3CCN(C)CC3)cc(C(C)(C)C)c2)cc1-n1ccn2nc(-c3cn[nH]c3)cc12` [Example 8, 3-tert-Butyl-5-(4-methylpiperazin-1-yl)-N-{4-methyl-3-[6-(1H-pyrazol-4-yl)-1H-imidazo[1,2-b]-pyrazol-1-yl]phenyl}benzamide], for which half-maximal inhibition in test [1] (IC50) was put at 1.9 nM.
Still for that read-out and setting: the result for `Cc1ccc(NC(=O)c2cc(C(C)(C)C)ccn2)cc1-n1ccn2nc(-c3cccnc3)cc12` [Example 125, 4-tert-Butyl-N-{4-methyl-3-[6-(pyridin-3-yl)-1H-imidazo[1,2-b]pyrazol-1-yl]phenyl}pyridine-2-carboxamide] reads 280 nM.
